From paper PMC2792877 (Biochemistry, 2008) come the findings set out here.

This test concerns the target pa-FPR (Pseudomonas aeruginosa, UniProt Q9HYK7). Put plainly: 1H-15N HSQC NMR titration, […] fit. In kind it is binding.

pKd: −log10 of the molar value.

pa-FPR, sequence (Q9HYK7 whole entry): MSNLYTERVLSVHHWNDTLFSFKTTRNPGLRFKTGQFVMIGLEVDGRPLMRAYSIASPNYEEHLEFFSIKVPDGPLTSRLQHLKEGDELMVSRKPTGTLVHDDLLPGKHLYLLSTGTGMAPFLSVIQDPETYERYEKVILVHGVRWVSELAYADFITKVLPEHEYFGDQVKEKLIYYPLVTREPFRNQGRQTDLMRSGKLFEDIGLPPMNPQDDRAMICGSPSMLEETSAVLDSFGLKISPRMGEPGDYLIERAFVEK

Turning to `NC(=O)c1ccc[n+]([C@@H]2O[C@H](COP(=O)(O)OP(=O)(O)OC[C@H]3O[C@@H](n4cnc5c(N)ncnc54)[C@H](OP(=O)(O)O)[C@@H]3O)[C@@H](O)[C@H]2O)c1` [NADP^+], the pKd (as a rule, the Kd on a negative log10 scale, so that one unit is a factor of ten) was 4.62.
